{
  "source": "BindingDB's records for doi:10.1016/j.bmcl.2021.128263",
  "about": "(A*Star, 2021)",
  "target": "Replicase polyprotein 1ab (Severe acute respiratory syndrome coronavirus, UniProt P0C6X7)",
  "assay": "Literature assay",
  "data": [
    {"smiles": "CC(OC(C)(C)C)[C@H](NC(=O)OCc1ccccc1)C(=O)N[C@@H](CC1CCCCC1)C(=O)N[C@H](C=O)CC1CCNC1=O", "note": "(some centres undefined) [TG-0205221]", "values": [
      {"measurement": "Ki", "value": 53, "unit": "nM"}
    ]},
    {"smiles": "CC(C)C[C@H](NC(=O)[C@@H](NC(=O)OCc1ccccc1)C(C)C)C(=O)N[C@@H](C[C@@H]1CCNC1=O)C(=O)c1nc2ccccc2s1", "note": "[peptidomimetic coronavirus 3CLpro inhibitors 2i]", "values": [
      {"measurement": "IC50", "value": 1700, "unit": "nM"}
    ]},
    {"smiles": "CC(C)C[C@H](NC(=O)[C@@H](NC(=O)OCc1ccccc1)C(C)C)C(=O)N[C@@H](C[C@@H]1CCNC1=O)C(=O)C(=O)N(C)C", "note": "[peptidomimetic coronavirus 3CLpro inhibitors 17]", "values": [
      {"measurement": "IC50", "value": 7, "unit": "nM"}
    ]},
    {"smiles": "CC(C)C[C@H](NC(=O)OCc1ccccc1)C(=O)N[C@@H](C[C@@H]1CCNC1=O)C(=O)c1nc2ccccc2s1", "note": "[peptidomimetic coronavirus 3CLpro inhibitors 25c]", "values": [
      {"measurement": "IC50", "value": 210000, "unit": "nM"}
    ]}
  ]
}
